Assays:
[1] = molecular target: T1, LAT1 (Mus musculus, UniProt Q9Z127); test: Transporter-mediated cellular uptake into primary astrocytes, primary mechanism (Eadie-Hofstee); type: in vitro ADME; details: Eadie-Hofstee analysis, mean ± SD, n = 3
T1 construct: mouse primary astrocytes, from which we have recently characterized LAT1 expression and function; endogenous in cells; host or cells: mouse primary astrocytes (cortex and hippocampi of 2-day-old wild-type and APP/PS1 mice)
Method: (§1) For the cell uptake experiments, the astrocytes were seeded on 24-well plates with a density of 10 × 10^4 cells/well three days before the experiments as described earlier. Cellular uptake of derivatives 1-3 of FA was studied by incubating the cells at 37°C for 30 min (uptake was linear with all compounds up to 30 min) with compounds at the concentration of 1-200 μM in prewarmed HBSS buffer (250 μL). […]; Agilent Technologies, Santa Clara, CA). The concentrations of each compound in cell lysates were calculated from the standard curve that was prepared by spiking known amounts of compounds to ACN including the selected internal standard and then normalized with protein concentration. The protein concentrations on each plate were determined as a mean of three samples by Bio-Rad Protein Assay, based on the Bradford dye-binding method, using bovine serum albumin (BSA) as a standard protein and measuring the absorbance (595 nm) by a multiplate reader (EnVision, PerkinElmer, Inc., Waltham, MA, USA).
(§2) All the cellular studies were carried out as three biological replicates from the same cell passage. The function of LAT1 was followed between the used cell passages (7-16) with a LAT1 probe substrate, [^14C]-L-leucine, and noticed to be unaltered. All statistical analyses, including Michaelis-Menten, Eadie-Hofstee, and Hanes-Woolf analyses, were performed using GraphPad Prism v. 5.03 software (GraphPad Software, San Diego, CA, USA). Statistical differences between groups were tested using one-way ANOVA, followed by Tukey's multiple comparison test, and presented as the mean ± SD, with significant differences denoted by asterisks (^∗P < 0.05, ^∗∗P < 0.01, and ^∗∗∗P < 0.001).

[2] = system: mTOR; test: Total amount of mTOR (ELISA) in cells; type: cell-based, mouse; details: 100 μM; 48 h
Method: Enzyme-Linked Immunosorbent Assay (ELISA) kits were used (mTOR SimpleStep ELISA Kit and NFκB p65 Total SimpeStep ELISA Kit, Abcam, Cambridge, UK) to quantify mammalian (or mechanistic) target of rapamycin (mTOR) and transcription factor NF-κB amounts, respectively. […] The control wells were treated with the solvent only (0.5% DMSO). Cells were solubilized using the provided extraction buffer with the kit, incubated on ice for 20 minutes and centrifuged at 18 000 × g for 20 min at 4°C. The supernatants were stored at -80°C till the day of the analysis. Standards and samples were then analyzed following the manufacturer's protocol (ELISA sandwich method) and by reading the absorbance with the EnVision plate reader (EnVision, PerkinElmer, Inc., Waltham, MA, USA) at 450 nm. The results were analyzed as pmol of formed mTOR or NF-κB per mL.

[3] = system: OATP/OAT; test: Transporter-mediated cellular uptake into primary astrocytes, secondary mechanism (Eadie-Hofstee); type: in vitro ADME, mouse; details: Eadie-Hofstee analysis, mean ± SD, n = 3
Method: as §1, §2

[4] = molecular target: T2, butyrylcholinesterase (BChE) (Mus musculus, UniProt Q03311); test: biochemical; type: biochemical; details: mouse brain S9 subcellular fraction, 30 min end point, mean ± SD, n = 3; for IC50: read-out: BuChE IC50 value
T2 construct: mouse brain S9 fraction was prepared by homogenizing freshly collected mouse brain; from tissue; host or cells: mouse brain S9 fraction (9 000 x g supernatant)
T2 sequence (Q03311 30-603): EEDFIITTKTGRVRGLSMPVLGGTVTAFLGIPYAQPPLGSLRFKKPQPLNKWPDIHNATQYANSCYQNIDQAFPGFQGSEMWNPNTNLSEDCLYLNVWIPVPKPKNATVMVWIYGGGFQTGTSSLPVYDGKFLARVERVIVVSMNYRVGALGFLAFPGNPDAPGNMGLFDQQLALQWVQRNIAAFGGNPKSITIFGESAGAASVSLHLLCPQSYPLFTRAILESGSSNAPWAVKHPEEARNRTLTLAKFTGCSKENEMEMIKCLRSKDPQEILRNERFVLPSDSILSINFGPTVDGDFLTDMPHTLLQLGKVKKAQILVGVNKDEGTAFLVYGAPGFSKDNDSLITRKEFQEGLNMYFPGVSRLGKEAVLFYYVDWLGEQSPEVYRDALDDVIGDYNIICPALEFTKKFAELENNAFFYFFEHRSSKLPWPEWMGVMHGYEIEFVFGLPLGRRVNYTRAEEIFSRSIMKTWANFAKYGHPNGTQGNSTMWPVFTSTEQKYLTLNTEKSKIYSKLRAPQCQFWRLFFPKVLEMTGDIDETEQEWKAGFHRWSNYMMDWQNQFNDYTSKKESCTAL
Method: (§3) Briefly, mouse brain S9 fraction was prepared by homogenizing freshly collected mouse brain with 50 mM Tris-buffered saline (TBS) (pH 7.4) (1 : 4, w/v), centrifuging the homogenate at 9 000 × g for 20 min at 4°C and collecting the supernatant. The supernatant was then diluted at 1 : 10 with phosphate-buffered saline (100 mM; pH 7.0) and mixed with Ellman's reagent (5,5′-dithiobis-(2-nitrobenzoic acid); DTNB; 1 mM) and studied compounds in DMSO (DMSO concentration was less than 0.5%) on a 96-well plate as 3 parallel assays.

[5] = molecular target: T3, acetylcholinesterase (AChE) (Mus musculus, UniProt P21836); test: biochemical; type: biochemical; details: for Vmax of AChE activity in the presence of derivative (Hanes-Woolf plot): 16-66 μM derivative, Crtl Vmax = 2.21
T3 construct: mouse brain S9 fraction was prepared by homogenizing freshly collected mouse brain; from tissue; host or cells: mouse brain S9 fraction (9 000 x g supernatant)
T3 sequence (P21836 32-614): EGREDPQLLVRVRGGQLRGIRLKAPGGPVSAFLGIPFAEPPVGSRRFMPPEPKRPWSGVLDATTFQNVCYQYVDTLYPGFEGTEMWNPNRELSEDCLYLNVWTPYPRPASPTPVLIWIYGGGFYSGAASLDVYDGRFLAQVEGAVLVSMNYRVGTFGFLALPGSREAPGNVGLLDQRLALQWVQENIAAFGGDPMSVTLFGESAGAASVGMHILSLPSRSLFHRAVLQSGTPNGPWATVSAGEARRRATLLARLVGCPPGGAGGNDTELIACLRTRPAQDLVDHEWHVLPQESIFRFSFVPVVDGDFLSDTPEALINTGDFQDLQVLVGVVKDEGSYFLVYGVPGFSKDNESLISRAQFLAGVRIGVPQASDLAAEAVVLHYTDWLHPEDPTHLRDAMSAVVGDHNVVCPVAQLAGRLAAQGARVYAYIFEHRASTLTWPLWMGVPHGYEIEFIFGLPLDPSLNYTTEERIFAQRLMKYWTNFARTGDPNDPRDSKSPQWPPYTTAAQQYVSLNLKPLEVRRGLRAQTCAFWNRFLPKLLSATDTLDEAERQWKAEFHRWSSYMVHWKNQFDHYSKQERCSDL
Method: as §3
According to the Hanes-Woolf plots, the ratio of initial substrate concentration to the reaction velocity ([S]/v) was plotted against the substrate concentration (μM).

[6] = mouse brain S9 subcellular fraction, 30 min end point, mean ± SD, n = 3

T1 sequence (Q9Z127 whole entry): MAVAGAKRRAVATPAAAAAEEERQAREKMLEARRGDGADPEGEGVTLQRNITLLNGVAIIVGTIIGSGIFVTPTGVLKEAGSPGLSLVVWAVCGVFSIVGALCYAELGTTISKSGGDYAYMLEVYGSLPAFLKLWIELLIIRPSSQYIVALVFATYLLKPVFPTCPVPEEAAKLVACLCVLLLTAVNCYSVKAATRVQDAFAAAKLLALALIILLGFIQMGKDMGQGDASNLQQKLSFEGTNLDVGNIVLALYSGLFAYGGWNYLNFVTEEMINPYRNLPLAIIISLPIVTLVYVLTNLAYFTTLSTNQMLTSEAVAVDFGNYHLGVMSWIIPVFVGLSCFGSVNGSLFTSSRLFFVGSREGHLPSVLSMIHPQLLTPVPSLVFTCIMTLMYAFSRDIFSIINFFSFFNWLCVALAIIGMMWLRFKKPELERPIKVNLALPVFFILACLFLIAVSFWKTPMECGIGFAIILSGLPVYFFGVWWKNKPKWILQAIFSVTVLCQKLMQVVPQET
T1 sequence (P10852 whole entry partner): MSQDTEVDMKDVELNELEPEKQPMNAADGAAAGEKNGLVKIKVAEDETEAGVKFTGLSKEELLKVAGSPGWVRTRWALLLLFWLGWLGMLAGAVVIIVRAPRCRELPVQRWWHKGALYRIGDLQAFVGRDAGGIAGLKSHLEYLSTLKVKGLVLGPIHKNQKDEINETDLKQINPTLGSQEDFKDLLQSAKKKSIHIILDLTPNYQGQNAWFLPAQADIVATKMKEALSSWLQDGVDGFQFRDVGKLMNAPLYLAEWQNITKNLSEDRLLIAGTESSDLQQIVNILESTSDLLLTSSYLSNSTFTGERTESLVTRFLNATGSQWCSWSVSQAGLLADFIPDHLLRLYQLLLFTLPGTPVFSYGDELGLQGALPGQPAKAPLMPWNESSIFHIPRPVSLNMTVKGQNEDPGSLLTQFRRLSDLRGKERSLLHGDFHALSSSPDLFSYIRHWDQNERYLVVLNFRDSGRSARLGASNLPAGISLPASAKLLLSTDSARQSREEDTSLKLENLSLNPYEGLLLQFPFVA

Compound | Primary transport mechanism (LAT1) K m [1] | Primary transport mechanism (LAT1) V max [1] | Increase of the amount of mTOR [2] | Secondary transport mechanism (OATP/OAT) K m [3] | Secondary transport mechanism (OATP/OAT) V max [3] | IC50 [4] [µM] | Vmax of AChE activity in the presence of derivative (Hanes-Woolf plot) [5] [nmol/min/mg] | IC50 [5, 6] [µM] | Reduction of total amount of mTOR [2] | BuChE IC50 value [4] | AChE IC50 value [5, 6]
COc1cc(C=CC(=O)NCc2cccc(CC(N)C(=O)O)c2)ccc1O (stereo not drawn) [FA-derivative 1] | 4.1 ± 2.1 µM | 0.008 ± 0.002 nmol/min/mg protein | approximately 28% | 101.1 ± 19.7 µM | 0.033 ± 0.402 nmol/min/mg protein | 220.8 ± 1.14 | 2.12 | 16.3 ± 1.52 | – | – | –
COc1cc(C=CC(=O)Oc2cccc(CC(N)C(=O)O)c2)ccc1O (stereo not drawn) [FA-derivative 3] | Autoactivation | Autoactivation | – | Autoactivation | Autoactivation | 236.1 ± 1.26 | 2.09 | 66.2 ± 1.23 | approximately 14% | – | –
COc1cc(C=CC(=O)Nc2cccc(CC(N)C(=O)O)c2)ccc1O (stereo not drawn) [FA-derivative 2] | 4.2 ± 0.8 µM | 0.013 ± 0.001 nmol/min/mg protein | – | 153.8 ± 15.0 µM | 0.172 ± 0.013 nmol/min/mg protein | – | – | 25.2 ± 1.43 | approximately 32% | No inhibition | –
COc1cc(/C=C/C(=O)O)ccc1O [FA, trans-4-hydroxy-3-methoxycinnamic acid, reference compound] | Autoactivation | Autoactivation | – | Autoactivation | Autoactivation | – | – | – | did not affect | No inhibition | No inhibition
